Experimental data from ChEMBL document CHEMBL3774320, “SAR exploration at the C-3 position of tetrahydro-β-carboline sstr3 antagonists” (Bioorg Med Chem Lett, 2016).

What was measured:
[1] = molecular target: T1, Somatostatin receptor type 3 (Homo sapiens, UniProt P32745)
Description: Binding affinity to human somatostatin receptor type 3

[2] = molecular target: T1, Somatostatin receptor type 3; remark: listed apart in the source
Description: Antagonist activity at human somatostatin receptor type 3 assessed as inhibition of cAMP levels

[3] = molecular target: Voltage-gated inwardly rectifying potassium channel KCNH2 (Homo sapiens, UniProt Q12809); test: Binding affinity to human ERG
Voltage-gated inwardly rectifying potassium channel KCNH2, sequence (Q12809 whole entry): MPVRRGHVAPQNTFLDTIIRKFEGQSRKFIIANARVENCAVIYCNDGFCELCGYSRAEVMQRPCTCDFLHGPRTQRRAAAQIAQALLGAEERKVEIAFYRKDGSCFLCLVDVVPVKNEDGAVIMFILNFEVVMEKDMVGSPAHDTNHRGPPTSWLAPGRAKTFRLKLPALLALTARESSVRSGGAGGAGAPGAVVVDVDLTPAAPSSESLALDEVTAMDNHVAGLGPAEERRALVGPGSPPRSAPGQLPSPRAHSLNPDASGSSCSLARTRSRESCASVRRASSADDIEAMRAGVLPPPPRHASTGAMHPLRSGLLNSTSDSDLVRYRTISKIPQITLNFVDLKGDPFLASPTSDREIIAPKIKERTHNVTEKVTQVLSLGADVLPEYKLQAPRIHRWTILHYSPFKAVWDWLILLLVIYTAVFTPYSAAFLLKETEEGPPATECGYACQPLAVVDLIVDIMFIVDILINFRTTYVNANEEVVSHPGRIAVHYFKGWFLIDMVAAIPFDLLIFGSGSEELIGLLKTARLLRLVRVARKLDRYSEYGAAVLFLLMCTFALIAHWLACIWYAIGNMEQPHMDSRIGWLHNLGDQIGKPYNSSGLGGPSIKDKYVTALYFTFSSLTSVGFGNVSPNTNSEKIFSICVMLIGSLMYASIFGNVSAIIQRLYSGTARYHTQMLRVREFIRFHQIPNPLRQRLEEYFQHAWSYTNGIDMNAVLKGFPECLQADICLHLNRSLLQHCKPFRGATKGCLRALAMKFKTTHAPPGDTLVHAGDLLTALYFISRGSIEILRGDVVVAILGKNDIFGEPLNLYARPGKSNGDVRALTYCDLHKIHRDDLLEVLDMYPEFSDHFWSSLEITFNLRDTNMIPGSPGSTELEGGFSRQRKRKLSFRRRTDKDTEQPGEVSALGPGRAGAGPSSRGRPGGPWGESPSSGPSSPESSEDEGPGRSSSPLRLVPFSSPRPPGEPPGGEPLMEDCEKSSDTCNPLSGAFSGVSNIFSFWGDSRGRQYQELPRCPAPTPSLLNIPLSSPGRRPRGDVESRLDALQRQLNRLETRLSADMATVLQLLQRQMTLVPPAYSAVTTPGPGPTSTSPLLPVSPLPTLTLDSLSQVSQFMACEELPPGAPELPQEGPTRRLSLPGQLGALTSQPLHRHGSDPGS

Mus musculus [4] = test: Decrease in glucose excursion in mouse at 0.1 mg/kg, po by Glucose tolerance test; format: functional; parameters: scale not given: the % may be the effect or the level left
Mus musculus [5] = test: Decrease in glucose excursion in mouse at 0.03 mg/kg, po by Glucose tolerance test; format: functional; parameters: scale not given: the % may be the effect or the level left
Mus musculus [6] = test: Decrease in glucose excursion in mouse at 0.3 mg/kg, po by Glucose tolerance test; format: functional; parameters: scale not given: the % may be the effect or the level left
Mus musculus [7] = test: Decrease in glucose excursion in mouse at 1 mg/kg, po by Glucose tolerance test; format: functional; parameters: scale not given: the % may be the effect or the level left
Mus musculus [8] = test: Decrease in glucose excursion in mouse at 3 mg/kg, po by Glucose tolerance test; format: functional; parameters: scale not given: the % may be the effect or the level left
[9] = molecular target: Somatostatin receptor type 1 (Homo sapiens, UniProt P30872); test: Binding affinity to somatostatin receptor type 1 (unknown origin)
Somatostatin receptor type 1, sequence (P30872 whole entry): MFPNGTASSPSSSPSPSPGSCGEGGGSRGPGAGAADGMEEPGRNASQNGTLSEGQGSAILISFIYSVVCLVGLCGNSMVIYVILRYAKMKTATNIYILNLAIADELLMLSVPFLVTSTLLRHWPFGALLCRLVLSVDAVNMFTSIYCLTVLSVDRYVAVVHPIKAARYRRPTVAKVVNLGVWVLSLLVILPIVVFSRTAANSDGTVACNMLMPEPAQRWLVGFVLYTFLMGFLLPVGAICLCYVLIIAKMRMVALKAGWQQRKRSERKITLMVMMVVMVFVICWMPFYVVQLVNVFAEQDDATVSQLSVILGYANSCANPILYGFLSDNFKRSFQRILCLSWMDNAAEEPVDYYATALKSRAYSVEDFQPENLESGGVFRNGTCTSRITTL

[10] = molecular target: Somatostatin receptor type 2 (Homo sapiens, UniProt P30874); test: Binding affinity to somatostatin receptor type 2 (unknown origin)
Somatostatin receptor type 2, sequence (P30874 whole entry): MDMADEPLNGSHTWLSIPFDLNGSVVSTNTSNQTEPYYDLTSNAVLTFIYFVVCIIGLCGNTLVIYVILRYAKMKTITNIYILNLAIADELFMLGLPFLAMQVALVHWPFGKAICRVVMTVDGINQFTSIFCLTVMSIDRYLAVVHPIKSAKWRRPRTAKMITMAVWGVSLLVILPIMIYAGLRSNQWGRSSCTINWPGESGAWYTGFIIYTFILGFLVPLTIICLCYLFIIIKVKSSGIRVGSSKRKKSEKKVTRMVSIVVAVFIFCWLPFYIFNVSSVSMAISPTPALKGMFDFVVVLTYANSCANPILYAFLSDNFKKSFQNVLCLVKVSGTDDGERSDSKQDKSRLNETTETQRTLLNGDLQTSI

[11] = molecular target: Somatostatin receptor type 4 (Homo sapiens, UniProt P31391); test: Binding affinity to somatostatin receptor type 4 (unknown origin)
Somatostatin receptor type 4, sequence (P31391 whole entry): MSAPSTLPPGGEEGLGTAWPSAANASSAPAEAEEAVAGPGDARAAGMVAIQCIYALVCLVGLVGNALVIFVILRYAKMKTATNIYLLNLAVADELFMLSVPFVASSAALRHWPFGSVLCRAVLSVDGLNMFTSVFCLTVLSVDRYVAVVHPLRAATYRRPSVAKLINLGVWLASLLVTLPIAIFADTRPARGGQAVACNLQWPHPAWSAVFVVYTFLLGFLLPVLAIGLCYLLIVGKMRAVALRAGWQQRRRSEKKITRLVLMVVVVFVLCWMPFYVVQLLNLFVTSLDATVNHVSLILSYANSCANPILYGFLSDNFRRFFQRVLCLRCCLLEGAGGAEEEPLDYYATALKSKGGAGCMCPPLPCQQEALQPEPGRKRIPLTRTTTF

[12] = molecular target: Somatostatin receptor type 5 (Homo sapiens, UniProt P35346); test: Binding affinity to somatostatin receptor type 5 (unknown origin)
Somatostatin receptor type 5, sequence (P35346 whole entry): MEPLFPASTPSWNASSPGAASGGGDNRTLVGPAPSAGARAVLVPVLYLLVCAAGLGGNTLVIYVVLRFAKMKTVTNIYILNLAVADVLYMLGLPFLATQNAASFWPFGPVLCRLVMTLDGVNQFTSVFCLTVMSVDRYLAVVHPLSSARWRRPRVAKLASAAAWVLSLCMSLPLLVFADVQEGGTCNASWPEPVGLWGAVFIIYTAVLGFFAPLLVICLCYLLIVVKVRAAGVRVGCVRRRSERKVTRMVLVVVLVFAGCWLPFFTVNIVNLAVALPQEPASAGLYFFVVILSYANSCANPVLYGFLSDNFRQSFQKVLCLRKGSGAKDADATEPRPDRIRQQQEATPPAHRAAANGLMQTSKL

Mus musculus [13] = test: Dose normalized AUC in mouse at 2 mg/kg, po; format: ADME, organism-based; conditions: in vivo
Mus musculus [14] = test: Decrease in glucose excursion in mouse at 10 mg/kg, po by Glucose tolerance test; format: functional; parameters: scale not given: the % may be the effect or the level left
[15] = Clearance in mouse plasma at 1 mg/kg, iv; format: ADME, organism-based
[16] = Half life in mouse at 1 mg/kg, iv; format: ADME, organism-based; conditions: in vivo
[17] = Volume of distribution at steady state in mouse at 1 mg/kg, iv and at 2 mg/kg, po; format: ADME, organism-based; conditions: in vivo, read-out: Vdss
[18] = Oral bioavailability in mouse at 2 mg/kg; format: ADME, organism-based; conditions: in vivo

T1 sequence (P32745 whole entry): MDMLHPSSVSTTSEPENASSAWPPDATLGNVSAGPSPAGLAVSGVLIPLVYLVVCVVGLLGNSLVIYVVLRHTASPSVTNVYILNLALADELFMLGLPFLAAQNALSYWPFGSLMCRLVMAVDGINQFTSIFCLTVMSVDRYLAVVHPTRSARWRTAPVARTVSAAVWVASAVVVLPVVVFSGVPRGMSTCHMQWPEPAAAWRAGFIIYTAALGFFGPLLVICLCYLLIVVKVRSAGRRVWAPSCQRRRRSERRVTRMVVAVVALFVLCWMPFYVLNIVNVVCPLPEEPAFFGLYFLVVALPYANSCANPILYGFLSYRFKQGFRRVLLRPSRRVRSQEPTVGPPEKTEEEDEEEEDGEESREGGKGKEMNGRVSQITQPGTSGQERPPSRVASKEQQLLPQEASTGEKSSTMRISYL

| Compound | IC50 [1] | EC50 [2] | further results |
| --- | --- | --- | --- |
| c1ccc2c3c([nH]c2c1)[C@@H](C1CCOCC1)N[C@@H](c1nc(-c2ccncc2)c[nH]1)C3 | 163 nM | 432 nM |  |
| c1ccc2c3c([nH]c2c1)[C@@H](C1CCOCC1)N[C@@H](c1nc(-c2ccsc2)c[nH]1)C3 | 15 nM | 48 nM |  |
| CC1(c2nc(-c3ccccc3)c[nH]2)Cc2c([nH]c3ccccc23)C(C2CCOCC2)N1 (stereo in doubt; 6b) | 603 nM |  | IC50 [3]: 2950 nM |
| N#Cc1ccc(-c2c[nH]c([C@H]3Cc4c([nH]c5ccccc45)[C@@H](C4CCOCC4)N3)n2)cc1 | 141 nM |  |  |
| CC(C)(C)c1c[nH]c(C2Cc3c([nH]c4ccccc34)C(C3CCOCC3)N2)n1 (stereo not drawn) | 150 nM | 1010 nM | IC50 [3]: 2940 nM |
| COc1cccc(-c2c[nH]c([C@H]3Cc4c([nH]c5ccccc45)[C@@](c4cnn(C)c4)(c4noc(C)n4)N3)n2)n1 | 2.9 nM | 17 nM |  |
| c1ccc2c3c([nH]c2c1)[C@@H](C1CCOCC1)N[C@@H](c1nc(-c2nccs2)c[nH]1)C3 | > 1330 nM | > 1000 nM |  |
| Cc1nc([C@]2(c3cnn(C)c3)N[C@@H](c3nc(-c4ccc(F)cn4)c[nH]3)Cc3c2[nH]c2ccccc32)no1 |  |  | Activity (Mus musculus [4]): 46%; Activity (Mus musculus [5]): 40%; Activity (Mus musculus [6]): 57%; Activity (Mus musculus [7]): 87%; Activity (Mus musculus [8]): 93%; IC50 [9]: 2300 nM; IC50 [10]: > 10000 nM; IC50 [11]: 3200 nM; IC50 [12]: 10000 nM |
| Cc1nc([C@]2(c3cnn(C)c3)N[C@@H](c3nc(-c4ccccn4)c[nH]3)Cc3c2[nH]c2ccccc32)no1 | 9.4 nM | 5.5 nM |  |
| Clc1ccc(-c2c[nH]c([C@H]3Cc4c([nH]c5ccccc45)[C@@H](C4CCOCC4)N3)n2)cc1 | 8.1 nM | 50 nM |  |
| COc1cccc(-c2c[nH]c([C@H]3Cc4c([nH]c5ccccc45)[C@@H](C4CCOCC4)N3)n2)c1 | 4.6 nM | 17 nM |  |
| Fc1ccccc1-c1c[nH]c([C@H]2Cc3c([nH]c4ccccc34)[C@@H](C3CCOCC3)N2)n1 | 18 nM | 30 nM |  |
| c1ccc(-c2ccc(-c3c[nH]c([C@H]4Cc5c([nH]c6ccccc56)[C@@H](C5CCOCC5)N4)n3)cc2)cc1 | 391 nM | > 1000 nM |  |
| c1cncc(-c2c[nH]c([C@H]3Cc4c([nH]c5ccccc45)[C@@H](C4CCOCC4)N3)n2)c1 | 193 nM |  |  |
| c1ccc2c3c([nH]c2c1)C(C1CCOCC1)NC(c1nc(C2CCCCC2)c[nH]1)C3 (stereo not drawn) | 230 nM | 691 nM |  |
| Cn1cc(-c2ccc(F)cc2)nc1[C@H]1Cc2c([nH]c3ccccc23)[C@@H](C2CCOCC2)N1 | 225 nM | > 1000 nM |  |
| Clc1ccc(-c2c[nH]c([C@H]3Cc4c([nH]c5ccccc45)[C@@H](C4CCOCC4)N3)n2)s1 | 17 nM | 206 nM |  |
| COc1ccc(-c2c[nH]c([C@H]3Cc4c([nH]c5ccccc45)[C@@H](C4CCOCC4)N3)n2)cc1 | 127 nM | 181 nM |  |
| FC(F)(F)Oc1cccc(-c2c[nH]c([C@H]3Cc4c([nH]c5ccccc45)[C@@H](C4CCOCC4)N3)n2)c1 | 43 nM | > 1000 nM | IC50 [3]: 58 nM |
| Cc1csc(-c2c[nH]c([C@H]3Cc4c([nH]c5ccccc45)[C@@H](C4CCOCC4)N3)n2)c1 | 34 nM | 138 nM |  |
| Clc1ccc(-c2c[nH]c([C@H]3Cc4c([nH]c5ccccc45)[C@@H](C4CCOCC4)N3)n2)nc1 | 74 nM | 199 nM |  |
| Fc1ccc(-c2c[nH]c([C@H]3Cc4c([nH]c5ccccc45)[C@@H](C4CCOCC4)N3)n2)cc1F | 1.8 nM | 6.4 nM |  |
| Cn1c2c(c3ccccc31)C[C@H](c1nc(-c3ccc(F)cc3)c[nH]1)N[C@@H]2C1CCOCC1 | 26 nM | 150 nM |  |
| c1ccc2c3c([nH]c2c1)[C@@H](C1CCOCC1)N[C@@H](c1nc(-c2cscn2)c[nH]1)C3 | 786 nM | > 1000 nM |  |
| COc1cccc(-c2c[nH]c([C@H]3Cc4c([nH]c5ccccc45)[C@@H](C4CCOCC4)N3)n2)n1 | 8 nM | 3.1 nM | IC50 [3]: 1020 nM |
| c1ccc2c3c([nH]c2c1)[C@@H](C1CCOCC1)N[C@@H](c1nc(-c2csc4ccccc24)c[nH]1)C3 | 10 nM | 11 nM |  |
| Cc1nc([C@@]2(c3cnn(C)c3)N[C@@H](c3nc(-c4ccccc4)c[nH]3)Cc3c2[nH]c2ccccc32)no1 | 2.6 nM | 3.3 nM |  |
| CC1(c2nc(-c3ccccc3)c[nH]2)Cc2c([nH]c3ccccc23)C(C2CCOCC2)N1 (stereo in doubt; 6c) | > 1330 nM |  | IC50 [3]: 1630 nM |

| Compound | IC50 [1] | EC50 [2] | further results |
| --- | --- | --- | --- |
| COc1cccc(-c2c[nH]c([C@H]3Cc4c([nH]c5ccccc45)[C@](c4cnn(C)c4)(c4noc(C)n4)N3)n2)n1 | 2.1 nM | 4.8 nM |  |
| c1ccc(-c2c[nH]c([C@H]3Cc4c([nH]c5ccccc45)[C@@H](C4CCOCC4)N3)n2)cc1 |  | 22 nM | AUC/dose (Mus musculus [13]): 1.25 µM·h/mg/kg; Activity (Mus musculus [14]): 75% |
| Fc1ccc(-c2c[nH]c([C@H]3Cc4c([nH]c5ccccc45)[C@@H](C4CCOCC4)N3)n2)nc1 | 39 nM | 67 nM |  |
| Fc1ccc(-c2c[nH]c([C@H]3Cc4c([nH]c5ccccc45)[C@@H](C4CCOCC4)N3)n2)c(F)c1 | 23 nM | 37 nM | IC50 [3]: 634 nM |
| Oc1ccc(-c2c[nH]c([C@H]3Cc4c([nH]c5ccccc45)[C@@H](C4CCOCC4)N3)n2)cc1 | 34 nM | 26 nM |  |
| c1ccc(-c2c[nH]c([C@H]3Cc4c([nH]c5ccccc45)[C@@H](C4CCOCC4)N3)n2)nc1 | 109 nM | 196 nM |  |
| c1cnc(-c2c[nH]c([C@H]3Cc4c([nH]c5ccccc45)[C@@H](C4CCOCC4)N3)n2)nc1 | > 1330 nM | > 1000 nM |  |
| c1ccc(-c2nc([C@H]3Cc4c([nH]c5ccccc45)[C@@H](C4CCOCC4)N3)c[nH]2)cc1 | 487 nM | 405 nM |  |
| Fc1cccc(-c2c[nH]c([C@H]3Cc4c([nH]c5ccccc45)[C@@H](C4CCOCC4)N3)n2)c1 | 8.2 nM | 88 nM |  |
| CC1(c2nc(-c3ccccc3)c[nH]2)Cc2c([nH]c3ccccc23)C(C2CCOCC2)N1 (stereo in doubt; 6d) | 102 nM | > 1000 nM | IC50 [3]: 530 nM |
| Fc1ccc(-c2n[nH]c([C@H]3Cc4c([nH]c5ccccc45)[C@@H](C4CCOCC4)N3)n2)cc1 | 282 nM | 201 nM |  |
| Cc1nc([C@@]2(c3cnn(C)c3)N[C@@H](c3nc(-c4ccccn4)c[nH]3)Cc3c2[nH]c2ccccc32)no1 | 24 nM | 77 nM |  |
| FC(F)(F)c1ccc(-c2c[nH]c([C@H]3Cc4c([nH]c5ccccc45)[C@@H](C4CCOCC4)N3)n2)cc1 | 26 nM | 1520 nM |  |
| c1ccc2c3c([nH]c2c1)C(C1CCOCC1)NC(c1nc(C24CC5CC(CC(C5)C2)C4)c[nH]1)C3 (stereo not drawn) | 25 nM | > 1000 nM | IC50 [3]: 506 nM |
| c1ccc2c3c([nH]c2c1)[C@@H](C1CCOCC1)N[C@@H](c1nc(-c2cnccn2)c[nH]1)C3 | 782 nM | 4500 nM |  |
| N#Cc1cccc(-c2c[nH]c([C@H]3Cc4c([nH]c5ccccc45)[C@@H](C4CCOCC4)N3)n2)c1 | 37 nM | 435 nM |  |
| O=C(O)c1cccc(-c2c[nH]c([C@H]3Cc4c([nH]c5ccccc45)[C@@H](C4CCOCC4)N3)n2)c1 | > 1330 nM |  |  |
| Fc1ccc(-c2cc([C@H]3Cc4c([nH]c5ccccc45)[C@@H](C4CCOCC4)N3)[nH]n2)cc1 | 280 nM | 938 nM |  |
| CS(=O)(=O)c1ccc(-c2c[nH]c([C@H]3Cc4c([nH]c5ccccc45)[C@@H](C4CCOCC4)N3)n2)cc1 | > 1330 nM | > 1000 nM |  |
| Cc1nc([C@]2(c3cnn(C)c3)N[C@@H](c3nc(-c4ccccc4)c[nH]3)Cc3c2[nH]c2ccccc32)no1 | 1.4 nM | 0.46 nM |  |
| c1ccc2c(-c3c[nH]c([C@H]4Cc5c([nH]c6ccccc56)[C@@H](C5CCOCC5)N4)n3)c[nH]c2c1 | 133 nM |  |  |
| FC(F)(F)Oc1ccc(-c2c[nH]c([C@H]3Cc4c([nH]c5ccccc45)[C@@H](C4CCOCC4)N3)n2)cc1 | 639 nM | > 1000 nM |  |
| Cc1ccc(-c2c[nH]c([C@H]3Cc4c([nH]c5ccccc45)[C@@H](C4CCOCC4)N3)n2)cc1 | 33 nM | 113 nM |  |
| Cn1cc(-c2ccc(F)cc2)nc1[C@H]1Cc2c([nH]c3ccccc23)[C@H](C2CCOCC2)N1 | 1330 nM |  |  |
| Cc1[nH]c([C@H]2Cc3c([nH]c4ccccc34)[C@@H](C3CCOCC3)N2)nc1-c1ccccc1 | 573 nM | > 1000 nM |  |
| Fc1ccc(-c2c[nH]c([C@H]3Cc4c([nH]c5ccccc45)[C@@H](C4CCOCC4)N3)n2)cc1 |  | 5.7 nM | AUC/dose (Mus musculus [13]): 5.58 µM·h/mg/kg; clearance [15]: 5.9 mL/min/kg; half-life [16]: 3.6 h; Vd [17]: 1.8 L/kg; bioavailability [18]: 82%; Activity (Mus musculus [14]): 79% |
| Cc1nc([C@]2(c3cnn(C)c3)N[C@@H](c3nc(-c4ccc(F)cc4)c[nH]3)Cc3c2[nH]c2ccccc32)no1 |  |  | Activity (Mus musculus [4]): 94% |
